Data from patent US4788301A, “Novel allylic amines” (Merrell Dow Pharmaceuticals Inc., priority 1987, dated 1988).
“Also recorded” adds a separate entry of the source.

Key:
[1] = tested on: hypertensive rats; assay: Antihypertensive activity in vivo in hypertensive rats (Table II); design: species or system rat
Experimental: The ability of the compounds of this invention to lower blood pressure can be determined in vivo using hypertensive rats according to standard and well known procedures. The test compound is administered intraperitoneally (ip) or orally (po) to rats and the blood pressure monitored continuously. Since DBH is a major enzyme in the synthetic pathway of the catecholamines, it would be expected that the presence of an inhibitor would act to decrease the amount of catecholamines produced, and thereby have an antihypertensive effect.

[2] = tested on: Rat Brain - Mitochondrial MAO; assay: Time-dependant inhibition of rat brain mitochondrial MAO (Table III); assay type: biochemical
Experimental: (§1) The compounds of this invention were conceived as mechanism-based inhibitors of DBH similar to that reported by S. May, J. Biol. Chem. 256, 2258 (1981). These compounds bear some resemblance to the catecholamines which are destroyed by the enzyme monoamine oxidase (MAO) in order to terminate neurotransmission. Because of their structural similarity to the catecholamines they may act as MAO substrates and, as such, act as k cat inhibitors of MAO. These compounds were evaluated as mechanism-based inhibitors of monooxygenasess by the method of A. Christmas et. al., Br. J. Pharmacol. 45, 490 (1972).

[3] = biological target: T1, dopamine β-hydroxylase (DBH) (Bos taurus, UniProt P15101); assay: Dopamine β-hydroxylase (DBH) inhibitory activity in vitro, time-dependent inactivation (Table I); assay type: biochemical; conditions: for Ki: inhibition constant for inactivation of DBH; for Ki / kinact: tyramine substrate, pH 5, Kitz and Wilson; for kinact: rate of inactivation of DBH
T1 sequence (P15101 1-610): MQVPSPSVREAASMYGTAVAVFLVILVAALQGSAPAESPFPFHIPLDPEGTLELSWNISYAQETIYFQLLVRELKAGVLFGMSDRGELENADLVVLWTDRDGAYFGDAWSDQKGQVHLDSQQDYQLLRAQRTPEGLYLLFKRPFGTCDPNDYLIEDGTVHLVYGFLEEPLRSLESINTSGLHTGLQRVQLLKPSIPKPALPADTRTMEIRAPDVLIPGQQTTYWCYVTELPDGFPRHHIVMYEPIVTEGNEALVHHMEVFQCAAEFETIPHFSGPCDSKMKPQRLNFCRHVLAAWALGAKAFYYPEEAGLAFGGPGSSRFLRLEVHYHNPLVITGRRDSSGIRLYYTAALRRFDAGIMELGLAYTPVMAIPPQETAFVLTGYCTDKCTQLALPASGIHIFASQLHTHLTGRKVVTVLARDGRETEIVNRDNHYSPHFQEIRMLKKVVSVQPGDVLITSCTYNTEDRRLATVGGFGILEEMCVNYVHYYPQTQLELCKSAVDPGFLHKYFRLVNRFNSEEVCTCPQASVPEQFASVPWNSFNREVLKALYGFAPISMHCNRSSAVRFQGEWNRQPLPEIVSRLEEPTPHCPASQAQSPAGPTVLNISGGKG
Experimental: The dopamine β-hydroxylase inhibitory properties of the compounds of this invention can readily be determined by standard and well known procedures such as those procedures set forth in U.S. Pat. […] For example, determination of whether the DBH inhibition allows time-dependent kinetics is exemplified by the procedure wherein enzymatic oxygenation by DBH is determined in aqueous solution in the presence of molecular oxygen, an electron donor such as ascorbate, and the necessary cofactors for the enzyme at a pH of 5 and a temperature of 20°-40° C., preferably 37° C. The test compound is added at the desired concentration, and the system is incubated. At different time intervals, aliquots are taken and DBH activity is measured using tyramine as the substrate and the reaction followed by measuring the oxygen uptake using a polarographic electrode and an oxygen monitor by the method of S. May et al., J. Biol. Chem. 256, 2258 (1981). The inhibition constants for the inactivation of DBH by each compound are then determined by conventional procedures such as the method of Kitz and Wilson, J. Biol. Chem. 237, 3245 (1962). When the compounds shown in Table I were tested according to the above described procedure, the DBH inhibitory activity increased as a function of the time of incubation. The initial rate of decrease of activity increased with increasing concentration of inhibitor.

[4] = biological target: T2, MAO A (Rattus norvegicus, UniProt P21396); assay: Inhibition of rat brain mitochondrial MAO A (Table III); assay type: biochemical
T2 construct: from tissue; host or cells: rat brain mitochondria
T2 sequence (P21396 1-526): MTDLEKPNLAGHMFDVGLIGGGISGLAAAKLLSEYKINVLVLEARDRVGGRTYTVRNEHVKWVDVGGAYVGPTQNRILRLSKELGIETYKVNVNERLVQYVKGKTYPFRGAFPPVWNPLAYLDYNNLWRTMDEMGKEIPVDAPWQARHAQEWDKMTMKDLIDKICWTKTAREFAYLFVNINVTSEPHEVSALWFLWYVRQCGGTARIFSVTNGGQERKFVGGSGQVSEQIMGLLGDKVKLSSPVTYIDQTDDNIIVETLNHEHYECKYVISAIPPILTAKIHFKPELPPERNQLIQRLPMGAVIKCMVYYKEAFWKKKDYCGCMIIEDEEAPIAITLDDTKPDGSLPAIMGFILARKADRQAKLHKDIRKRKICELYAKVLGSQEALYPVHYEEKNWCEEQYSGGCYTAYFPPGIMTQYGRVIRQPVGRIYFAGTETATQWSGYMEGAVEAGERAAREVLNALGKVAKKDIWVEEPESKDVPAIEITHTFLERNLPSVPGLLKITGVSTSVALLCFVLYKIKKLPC
Experimental: as §1

[5] = tested on: purified DBH; assay: Time-dependant inhibition of purified DBH (Table III); assay type: biochemical
Experimental: The dopamine β-hydroxylase inhibitory properties of the compounds of this invention can readily be determined by standard and well known procedures such as those procedures set forth in U.S. Pat. No. 4,415,191. For example, determination of whether the DBH inhibition allows time-dependent kinetics is exemplified by the procedure wherein enzymatic oxygenation by DBH is determined in aqueous solution in the presence of molecular oxygen, an electron donor such as ascorbate, and the necessary cofactors for the enzyme at a pH of 5 and a temperature of 20°-40° C., preferably 37° C. The test compound is added at the desired concentration, and the system is incubated. At different time intervals, aliquots are taken and DBH activity is measured using tyramine as the substrate and the reaction followed by measuring the oxygen uptake using a polarographic electrode and an oxygen monitor by the method of S. May et al., J. Biol. Chem. 256, 2258 (1981). The inhibition constants for the inactivation of DBH by each compound are then determined by conventional procedures such as the method of Kitz and Wilson, J. Biol. Chem. 237, 3245 (1962). When the compounds shown in Table I were tested according to the above described procedure, the DBH inhibitory activity increased as a function of the time of incubation. […]

[6] = biological target: T3, MAO B (Rattus norvegicus, UniProt P19643); assay: Inhibition of rat brain mitochondrial MAO B (Table III); assay type: biochemical
T3 construct: from tissue; host or cells: rat brain mitochondria
T3 sequence (P19643 1-520): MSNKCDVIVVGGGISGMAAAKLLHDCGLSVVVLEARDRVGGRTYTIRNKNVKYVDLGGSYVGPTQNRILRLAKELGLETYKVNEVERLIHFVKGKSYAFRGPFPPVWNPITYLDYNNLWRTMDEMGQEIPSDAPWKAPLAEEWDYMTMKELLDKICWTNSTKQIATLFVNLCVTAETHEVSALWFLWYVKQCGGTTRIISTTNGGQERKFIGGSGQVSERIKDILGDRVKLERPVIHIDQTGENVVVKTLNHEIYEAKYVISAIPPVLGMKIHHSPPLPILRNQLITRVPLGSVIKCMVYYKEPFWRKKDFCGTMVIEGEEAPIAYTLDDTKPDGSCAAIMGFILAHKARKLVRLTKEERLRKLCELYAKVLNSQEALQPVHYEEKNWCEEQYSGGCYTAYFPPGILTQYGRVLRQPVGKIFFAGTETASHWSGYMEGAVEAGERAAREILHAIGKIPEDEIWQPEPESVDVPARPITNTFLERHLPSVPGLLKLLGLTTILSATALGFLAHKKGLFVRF
Experimental: as §1

Compound | Maximum % Change Mean Blood Pressure ([1]; 10 mg/kg ip) | Maximum % Change Mean Blood Pressure ([1]; 30 mg/kg ip) | Maximum % Change Mean Blood Pressure ([1]; 50 mg/kg po) | Maximum % Change Mean Blood Pressure ([1]; 100 mg/kg ip) | Maximum % Change Mean Blood Pressure ([1]; 100 mg/kg po) | Maximum % Change Mean Blood Pressure ([1]; 200 mg/kg po) | MAO inhibition (in words) [2] | Relative DBH inhibitory potency of the isomers ([3]; 2- vs. 3-thiophene isomer, Table I) | Ki [3] | kinact [3] | Ki [4] | MAO A Tau50 [4] | Time-dependant inhibition t1/2 ([5]; 5.10^-5 M final concentration, purified DBH) | DBH inhibitory activity (in words) ([5]; compared with MAO inhibition) | Ki [6] | MAO B Tau50 [6]
C=C(CN)c1cccs1 [β-Methylene-2-Thiopheneethanamine, β-methylene-2-thiopheneethanamine] | 11% | 22% | 11% | 52% | 14% | 14% | weak MAO inhibitory activity; also recorded: Weak time-dependant MAO inhibitor | the more potent isomer | 2000 µM | 0.000333 s⁻¹ | 320 µM | 2.6 min | 7 min | potent DBH inhibitory activity | 110 µM | 4.9 min
C=C(CN)c1ccsc1 [β-Methylene-3-Thiopheneethanamine, β-methylene-3-thiopheneethanamine] |  |  |  |  |  |  |  |  | 2000 µM | 6.67e-05 s⁻¹ |  |  |  |  |  | 
